Test results published in patent publication US20050165032A1, “Vanilloid receptor ligands and their use in treatments” (priority 2004, published 2005).

Row | Structure (SMILES) | melting point
1 | Cl.Clc1ccc2c(Nc3ccc4c(c3)OCCO4)ncnc2c1 | 304 to 306 °C
2 | CC(=O)Nc1nc2c(Nc3ncnc4cc(Cl)ccc34)cccc2s1 [Example 2, N-[4-(7-Chloro-quinazolin-4-ylamino)-benzothiazol-2-yl]-acetamide] | 229.8 °C
3 | FC(F)(F)c1ccc(Nc2ncnc3c2CCN(c2ncccc2C(F)(F)F)C3)cn1 [Example 10, (6-Trifluoromethyl-pyridin-3-yl)-[7-(3-trifluoromethyl-pyridin-2-yl)-5,6,7,8-tetrahydro-pyrido[3,4-d]pyrimidin-4-yl]-amine] | 144.5 to 150 °C
4 | CC(C)(C)c1ccc(Oc2ncnc3cc(-c4ncccc4C(F)(F)F)ccc23)cc1 [Example 17, 4-(4-tert-Butyl-phenoxy)-7-(3-trifluoromethyl-pyridin-2-yl)-quinazoline] | 162 to 163 °C
